According to PMC9048745, “Physicochemical investigation of a novel curcumin diethyl γ-aminobutyrate, a carbamate ester prodrug of curcumin with enhanced anti-neuroinflammatory activity” (PLoS ONE, 2022):
Where two headings read alike, the source gives them in different places.

What was measured:
[1] = Partition coefficient, shake flask method (OECD 107); format: physicochemical; details: 25°C, aqueous phase not detectable, LOQ of 0.05 μg/mL used for calculation
Protocol: The partition coefficient of CUR-2GE was quantified using the shake flask method according to the guideline of OECD 107 with some modifications. A saturated mixture of n-octanol/water was firstly prepared at 25°C by stirring an equal volume of n-octanol/water for 24 h and left standing until complete separation. A 1 mg of CUR-2GE was dissolved in saturated n-octanol and water at volume ratios of 1:1, 1:2 and 2:1 in screw cap tubes. Experiments were run in duplicate. The tube was shaken through 180° over the transverse axis approximately 100 times in 5 min at room temperature (25°C) to reach equilibrium and phase distribution. The phases were then separated by centrifugation at 25°C at 5,500 rpm for 10 min. […] CUR-2GE concentrations in each phase were analyzed by UPLC, and the Po/w value was determined. In addition to water used as an aqueous phase, the partition coefficient between n-octanol and buffer at pH 4.5 and the Po/buffer pH 4.5 value were determined (see S1 Appendix).
The Po/w value and Po/buffer pH 4.5 value were calculated by Eq. 3 and Eq. 4, respectively. The Log Po/w and Log Po/buffer pH 4.5 were evaluated from the average results (n = 6) from three solvent ratios, where the results fall within the range of variation of ± 0.3 units. […]
(§1) The half-lives (t1/2) of CUR-2GE were calculated by Eq. 6: […]

[2] = Chemical stability in aqueous buffer solutions at 37°C; format: physicochemical; details: for half-life at 10 μg/mL: read-out: t1/2, hydrolysis (converted)
Protocol: Chemical stability of CUR-2GE was performed at 37°C in aqueous buffer solutions at pH 1.2, 4.5, 6.8 and 7.4. CUR-2GE (1 mg) was dissolved in DMSO (1 mL) and adjusted with the diluent in a 5-mL volumetric flask to obtain a stock solution at 200 μg/mL. The stock solution was diluted with a pre-incubated buffer in a vial at 37°C at an initial concentration of 10 μg/mL [26]. Each sample was incubated at 37°C at appropriate intervals and analyzed using UPLC. The experiment was performed in triplicate. The hydrolytic products were also identified by comparing chromatographic retention times to curcumin and CUR-1GE. Kinetic profiles of CUR-2GE and its hydrolytic products, including curcumin and CUR-1GE, were determined by plotting percent peak area vs. incubation time. The linear slope of the natural logarithm of concentrations against time was used to calculate the degradation rate (k) and half-life (t1/2) using the linear pseudo-first-order model (see S1 Appendix). […]
The linear slopes of the natural logarithm of a concentration against time were used to calculate the degradation rate (k) for the pseudo-first-order (Eq. 5).
Ln [At] = Ln [A0] - kt (5)
Where A0 is the CUR-2GE concentration at time 0, At is the concentration of CUR-2GE at time t, and k is the degradation rate constant of CUR-2GE.
as §1

[3] = Release study in human plasma at 37°C; format: in vitro ADME
Protocol: The amount of curcumin released from CUR-2GE in human plasma was determined at 37°C at various time points. A stock solution of CUR-2GE (100 μg/mL) in the diluent was prepared and diluted with pre-incubated human plasma at 37°C for 5 min to obtain the final concentration of 5 μg/mL. The mixture was incubated at 37°C for 5, 10, 20, 30 and 60 min and each aliquot (300 μL) was added with 300 μL of acetonitrile to stop the reaction and further centrifugated at 4°C at 14,000 rpm for 30 min. The concentration of CUR-2GE in the supernatant was analyzed using UPLC [19, 26]. Experiments were carried out in triplicates. The initial time point (0 min) was prepared by adding 300 μL acetonitrile to the pre-incubated human plasma. The percent peak area of CUR-2GE and its hydrolytic products was plotted against incubation time. The k and t1/2 values were determined using the linear pseudo-first-order model.

[4] = system: NO production in LPS-stimulated BV-2 microglial cells; test: Nitric oxide assay (Griess reagent); format: cell-based, murine; details: 10 μM, 12 h pre-incubation, then 1 μg/mL LPS 24 h; compared with curcumin
Protocol: (§2) BV-2 microglial cells were plated in a 24-well plate at a density of 2 × 10^5 per well for 24 h. The cells were pre-incubated for 12 h with curcumin (10 μM), CUR-2GE (10 μM), medium (DMEM), or a vehicle (0.5% DMSO). The cells were then induced with 1 μg/mL LPS for 24 h. The culture medium samples were collected and analyzed for nitric oxide (NO) and cytokines (TNF- and IL-6) using NO and enzyme-linked immunoassay (ELISA) assays, respectively.
Nitric oxide (NO) production was determined by measuring nitrite, the NO metabolite, using Griess reagent. Briefly, the culture medium (100 μL) was added with 1% sulfanilamide (50 μL) and incubated for 5 min. Then, a solution of 0.1% N-(1-naphthyl)ethylenediamine dihydrochloride (50 μL) was added and incubated for 5 min. The absorbance was measured at 520 nm using the microplate reader, and the nitrite concentration was calculated against a calibration curve using NaNO₂ as a standard.

[5] = system: IL-6 release in LPS-stimulated BV-2 microglial cells; test: IL-6 ELISA; format: cell-based, murine; details: 10 μM, 12 h pre-incubation, then 1 μg/mL LPS 24 h; compared with curcumin
Protocol: as §2
Quantification of TNF-α and IL-6 was performed using commercially available ELISA kits according to the manufacturer’s protocol (BioLegend, San Diego, CA, USA). The absorbance was measured at 450 nm using the microplate reader, and the amount of TNF-α and IL-6 was determined against their corresponding standard curves of TNF-α and IL-6.

CCOC(=O)CCCNC(=O)Oc1ccc(/C=C/C(=O)/C=C(O)/C=C/c2ccc(OC(=O)NCCCC(=O)OCC)c(OC)c2)cc1OC [CUR-2GE, Curcumin diethyl γ-aminobutyrate]
logP ([1]; n-octanol/buffer pH 4.5, pH 4.5, read-out: Log P (Log Po/buffer pH 4.5), n-octanol/buffer pH 4.5): 3.43 ± 0.14 | logP ([1]; n-octanol/water, read-out: Log P (Log Po/w), n-octanol/water): 3.57 ± 0.19 | hydrolysis rate in buffer pH 7.4 higher than pH 1.2 ([2]; 37°C): 262 folds | hydrolysis rate in buffer pH 7.4 higher than pH 4.5 ([2]; 37°C): 778 folds | hydrolysis rate in buffer pH 7.4 higher than pH 6.8 ([2]; 37°C): 1.94 folds | half-life at 10 μg/mL ([2]; aqueous buffer pH 1.2, buffer pH 1.2, 37°C): 11.9 ± 0.14 h | half-life at 10 μg/mL ([2]; aqueous buffer pH 4.5, buffer pH 4.5, 37°C): 36.4 ± 8.53 h | half-life at 10 μg/mL ([2]; aqueous buffer pH 6.8, buffer pH 6.8, 37°C): 0.09 ± 0.01 h | half-life at 10 μg/mL ([2]; aqueous buffer pH 7.4, buffer pH 7.4, 37°C): 0.045 ± 0.002 h | k, pseudo-first-order hydrolysis ([2]; buffer pH 1.2, 37°C): 0.0583 ± 0.0007 h⁻¹ | k, pseudo-first-order hydrolysis ([2]; buffer pH 4.5, 37°C): 0.020 ± 0.004 h⁻¹ | k, pseudo-first-order hydrolysis ([2]; buffer pH 6.8, 37°C): 7.89 ± 0.54 h⁻¹ | k, pseudo-first-order hydrolysis ([2]; buffer pH 7.4, 37°C): 15.31 ± 0.70 h⁻¹ | rate in human plasma lower than that in buffer pH 7.4 [3]: approximately 8.7 fold | k, pseudo-first-order hydrolysis ([3]; human plasma): 1.76 ± 0.30 h⁻¹ | time for sequential conversion to CUR-1GE and curcumin in plasma ([3]; human plasma): ≤ 1 h | half-life at 5 μg/mL ([3]; human plasma, read-out: t1/2, hydrolysis (converted)): 24 ± 4.8 min | inhibition of NO production [4]: to a greater extent than curcumin | inhibition of IL-6 release [5]: to a greater extent than curcumin
